Consider 1 compound from patent US5573908A, “Adrenergic receptor as a proto-oncogene” (Duke University, priority 1993, dated 1996).

For assay [1], the system named is NIH 3T3 fibroblasts transfected with α1B ADR. As to the kind of experiment: Focus formation in NIH 3T3 fibroblasts transfected with α1B-ADR c-DNA. Format: cell-based. To be noted: NIH 3T3 transfected with α1B ADR; 10 μM NE supplemented daily, 5% FBS (Table 1).
Assay [2] relates to NIH 3T3 fibroblasts transfected with expression vector alone. As to the kind of experiment: Focus formation in NIH 3T3 fibroblasts transfected with expression vector alone. Format: cell-based. The following applies: NIH 3T3 transfected with vector alone; 10 μM NE supplemented daily, 5% FBS (Table 1).
Assay [3] deals with T1, α1B ADR (Mesocricetus auratus, UniProt P18841).
T1 construct: expressed in transfected cells; host or cells: RAT-1 fibroblasts (vector pZIP-NeoSV(X)1), focus-derived, G418-selected lines
T1 sequence (P18841 1-515): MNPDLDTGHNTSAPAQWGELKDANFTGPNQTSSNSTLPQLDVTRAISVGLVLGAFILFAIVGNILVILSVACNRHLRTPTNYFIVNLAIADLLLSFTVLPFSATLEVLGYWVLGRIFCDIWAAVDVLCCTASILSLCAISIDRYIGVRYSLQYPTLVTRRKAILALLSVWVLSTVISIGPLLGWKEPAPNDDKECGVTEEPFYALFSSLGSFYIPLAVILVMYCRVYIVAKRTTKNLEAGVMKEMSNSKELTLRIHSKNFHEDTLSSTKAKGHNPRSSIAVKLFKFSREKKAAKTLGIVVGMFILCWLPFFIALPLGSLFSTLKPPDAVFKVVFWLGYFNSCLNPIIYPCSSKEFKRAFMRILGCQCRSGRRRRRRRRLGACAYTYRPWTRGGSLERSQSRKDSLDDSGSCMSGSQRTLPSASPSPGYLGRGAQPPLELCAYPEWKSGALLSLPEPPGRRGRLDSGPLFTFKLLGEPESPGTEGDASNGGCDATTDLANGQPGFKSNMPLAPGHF
As to the kind of experiment: Ligand binding on membranes of RAT-1 fibroblast cell lines expressing the α1B ADR. Details: species or system hamster. The following applies: competition with 100 pM [125I] HEAT; membranes, two clones; read-out: NE Ki. The protocol:
(§1) In Table 3, RAT-1 fibroblast cell lines transfected with expression vector alone or derived from transformed foci (α1B ADR or α1B ADR mutant) were selected with G418 (300 μg/ml). Ligand binding was performed on membranes prepared from two clones of each in accordance with known techniques (S. Cotecchia et al., Life Sci. 37, 2389 (1986)). For saturation binding analysis, [^125 ] HEAT concentrations ranged from 10 to 500 pM, nonspecific binding was determined using 1 μM prazosin; in competition experiments, the radioligand concentration was 100 pM. Ligand binding parameters were determined using computerized iterative nonlinear regression analysis (P. Munson, Methods in Enzymol. 92, 5432 (1983)). For assessment of receptor coupling to PI hydrolysis, cells were plated in 30 mm dishes, and labeled overnight with 3 μCi/ml of myo-[2-^3 II(N)]-inositol (1Ci=37 GBq; NEN Research Products) in DMEM containing 3.3% FBS in accordance with known techniques (S. Cotecchia et al., Proc. Natl. Acad. Sci. USA 87, 2896 (1990)). After 40 minute stimulation of cells with 10 μM norepinephrine (NE), inositol phosphates were extracted, and separated on AG 1-X8 anion exchange columns (BioRad Labs) in accordance with known techniques (S. Cotecchia et al., Proc. Natl. Acad. Sci. USA 87, 2896 (1990)). Total inositol phosphates were eluted with 1M ammonium formate/0.1M formic acid. Rmax indicates the percentage increase of total labeled inositol phosphates over basal levels following NE stimulation.

Assay [4] addresses T1, α1B ADR. Description: NE stimulated PI hydrolysis in RAT-1 cell lines expressing the α1B ADR. The format is cell-based, hamster. The protocol: as §1, with “Rmax indicates the percentage increase of total labeled inositol phosphates over basal levels following NE stimulation.” left out
Assay [5] is described as follows: NE stimulated PI hydrolysis in RAT-1 cell lines transfected with vector alone. The format is cell-based. The following applies: 40 min, 10 μM NE, 40 minute, two clones, read-out: NE Stimulated PI Hydrolysis Rmax. The source says: In cell lines expressing the α1B -ADR mutant, NE induced a 900 to 1000% increase in inositol phosphates (Table 3); this level of PI hydrolysis was only seen in cells expressing the wild type receptor with a two fold higher level of receptor expression. […] The α1B -ADR, appearing on the surface of RAT-1 fibroblasts following transfection, therefore, functionally couples to PI hydrolysis in these cells. Whether receptor coupling to PLC actually mediates the α1B -ADR's ability to induce malignant transformation in these cells, however, remains speculative. Coupling of this receptor to alternate G proteins or effector systems may be responsible for triggering uncontrolled cell proliferation.
In Table 3, RAT-1 fibroblast cell lines transfected with expression vector alone or derived from transformed foci (α1B ADR or α1B ADR mutant) were selected with G418 (300 μg/ml). Ligand binding was performed on membranes prepared from two clones of each in accordance with known techniques (S. Cotecchia et al., Life Sci. 37, 2389 (1986)). For saturation binding analysis, [^125 ] HEAT concentrations ranged from 10 to 500 pM, nonspecific binding was determined using 1 μM prazosin; in competition experiments, the radioligand concentration was 100 pM. Ligand binding parameters were determined using computerized iterative nonlinear regression analysis (P. Munson, Methods in Enzymol. 92, 5432 (1983)). […]

Assay [6] relates to RAT-1 fibroblast cell line derived from a single transformed focus expressing the α1B -ADR. Description: Morphology of focus-derived RAT-1 fibroblast cell line expressing the α1B-ADR. The format is cell-based. To be noted: 10 μM NE, 36 hours, 5% FBS.
The subject of assay [7] is RAT-1 fibroblast cell lines expressing the α1B -ADR. As to the kind of experiment: cells. The following applies: 600 h, read-out: final cell density (day 25) relative to control.
Method: Growth curves of G418 selected RAT-1 fibroblast cell lines transfected with vector alone (A), or expressing the α1B -ADR (B) or α1B -ADR mutant (C) in the absence (------) or presence (---) of norepinephrine (NE). Cells were plated in 100mm dishes at a density of 5×10^5 cells per dish in DMEM containing 5% FBS. After 24 hours, half the dishes received daily supplementation with 10 μM NE, and all dishes were fed with fresh medium every 2-3 days. At each time point, cells were trypsinized and cell counts determined using an electronic particle counter (Coulter Electronics). Values represent the mean of duplicate determinations of a representative experiment, which agree within 6%.
To quantitate receptor-mediated effects on mitogenesis, basal and NE-stimulated growth rates were assessed on cell lines expressing the wild type or mutant α1B -ADRs.

Structures are written as SMILES. Values joined by “and” are separate entries in the source; they are usually repeats but may differ in a detail not shown here. Equal values may be shown once. “Also recorded” adds a separate entry of the source.

A word on the Ki: it is a dissociation constant, usually derived from enzyme kinetics or from competition with a known ligand. As for `NC[C@H](O)c1ccc(O)c(O)c1` [NE, norepinephrine], the “Foci No. +NE” value amounted to 85 in assay [1] and 12 in assay [2]. Further, the Ki at α1B ADR [3] was 5.82 µM and 5.33 µM. The “NE Stimulated PI Hydrolysis Rmax” value at α1B ADR [4] (10 μM NE, 40 minute, increase of total labeled inositol phosphates over basal, two clones) is 758 % increase and 410 % increase. In addition, at α1B ADR [4] (focus-derived fibroblasts expressing α1B-ADR), the “increase in total inositol phosphates following NE stimulation” value was 400 to 800%. Further, in assay [5], the activation at 10 µM worked out at 0%. The “cellular morphology / phenotype in the presence of agonist” value in assay [6] is “reverted to the transformed phenotype; also recorded: agonist-dependent alteration in cellular morphology with a loss in cellular orientation and decreased adhesiveness”. Moreover, the fold induction at 10 µM in assay [7] was found to be 1.9.
